Test results published in patent US20130065818A1, “Arylamide Compounds And Compositions And Uses Thereof” (POLYMEDIX, priority 2006, published 2013).
Values after ≈ are worked out from the molar mass of the structure shown. Like-named read-outs stand apart in the source and are kept apart here.

Legend:
[1] = test system: Streptococcus viridans group; test: MIC, 25 ocular isolates, broth microdilution (Example 8); assay type: cell-based
Method: Mueller-Hinton Broth supplemented with 2% lysed horse blood in tubes was inoculated with 25 ocular isolates of Streptococcus pneumoniae, Streptococcus viridans group, and Moraxella species (including Moraxella catarrhalis) plus two controls (Staphylococcus aureus and E. coli) and incubated at 37° C. overnight. Additionally, Mueller-Hinton Broth in tubes was inoculated with two controls (Staphylococcus aureus and E. coli) and incubated at 37° C. overnight on a shaker set at 250 rpm.
(§1) On the day of testing, a 640 μg/ml (1280 μg/ml for Serratia marcescens and Pseudomonas aeruginosa) concentration was prepared from a 1% stock solution in 0.01% acetic acid, 0.2% BSA in polypropylene tubes.
(§2) Serial doubling dilutions in 0.01% acetic acid, 0.2% BSA in 96 well polypropylene plates, which are used as reservoirs for the inoculation of the test plates, were carried out to obtain serial dilutions of test agents at 10 times the required test concentrations: 640, 320, 160, 80, 40, 20, 10, 5, 2.5, 1.25, and 0.625 μg/ml (1280, 640, 320, 160, 80, 40, 20, 10, 5, 2.5, and 1.25 μg/ml for Serratia marcescens and Pseudomonas aeruginosa).
(§3) Ten μl of diluted 10×test agents was added to each well of one row of the 96 well polypropylene plates from column 2 to column 12 (column 1 is a control for bacteria alone, with no peptide). Test agent concentrations in columns 2-12 were as follows: 64, 32, 16, 8, 4, 2, 1, 0.5, 0.25, 0.125, and 0.0625 μg/ml (128, 64, 32, 16, 8, 4, 2, 1, 0.5, 0.25, and 0.125 μg/ml for Serratia marcescens and Pseudomonas aeruginosa). The same peptide was in each of the 8 rows. One plate contained dilutions of one test agent and 8 bacterial isolates.
On the day of testing, the overnight bacterial broth cultures of Streptococcus pneumoniae, Streptococcus viridans and Moraxella species (including Moraxella catarrhalis) plus two controls (Staphylococcus aureus and E. coli) were diluted in 5 ml of trypticase soy broth to yield turbidity equal to a 0.5 McFarland standard. The final inoculum for MIC testing for Streptococcus pneumoniae, Streptococcus viridans and Moraxella species (including Moraxella catarrhalis) was achieved by placing 0.1 ml of the turbidity adjusted sample to 5 ml of Mueller-Hinton broth containing 2% lysed horse red blood cells.
(§4) Ninety μl of the bacterial suspensions was dispensed in each well from column 1 to column 12. Each bacterial isolate was placed in one row of a 96 well polypropylene plate containing the test agents. The plates were placed on shaker at 15 minutes at room temperature, and then incubated at 37° C. overnight. MICs were determined visually as the lowest concentration of drug that inhibits visible bacterial growth.

Haemophilus influenzae = test: as above; assay type: cell-based
Method: HTM (Haemophilus Test Medium) in tubes was inoculated with 25 ocular isolates of Haemophilus influenzae plus two controls (Staphylococcus aureus and E. coli) and incubated at 37° C. overnight. Additionally, Mueller-Hinton Broth in tubes was inoculated with two controls (Staphylococcus aureus and E. coli) and incubated at 37° C. overnight on a shaker set at 250 rpm.
as §1, §2, §3
On the day of testing, the overnight bacterial broth cultures of Haemophilus species was diluted in 5 ml of trypticase soy broth to yield turbidity equal to a 0.5 McFarland standard. The final inoculum for MIC testing for Haemophilus species was achieved by placing 0.1 ml of the turbidity adjusted sample to 5 ml of HTM medium.
as §4

[2] = Haemophilus influenzae, n=25 isolates, >64 replaced with 128

## N=C(N)NCCCCC(=O)Nc1cc(C(F)(F)F)cc(NC(=O)c2cnc(C(=O)Nc3cc(C(F)(F)F)cc(NC(=O)CCCCNC(=N)N)c3SCCN)cn2)c1SCCN [Oligomer 5]
[1]; 25 isolates, Row 13
  MIC50: 16 µg/mL (≈ 17.4 µM)
[1]; 25 isolates, Row 22, >64 was Replaced with 128
  MIC90: 128 µg/mL (≈ 140 µM)
[1]; 25 isolates, Summary of Results, >64 was Replaced with 128
  Range of MICs: 0.5 to 128 µg/mL
[1]; Streptococcus viridans, 25 ocular isolates, Mueller-Hinton broth with 2% lysed horse red blood cells, read-out: Median MIC
  MIC: 16 µg/mL (≈ 17.4 µM)
[1]; Streptococcus viridans, isolate 1—K1684, read-out: MIC
  MIC: 8 µg/mL (≈ 8.72 µM)
[1]; Streptococcus viridans, isolate 2—K1680, read-out: MIC
  MIC: 64 µg/mL (≈ 69.8 µM)
[1]; Streptococcus viridans, isolate 3—E546, read-out: MIC
  MIC: 8 µg/mL (≈ 8.72 µM)
[1]; Streptococcus viridans, isolate 4—E272, read-out: MIC
  MIC: 16 µg/mL (≈ 17.4 µM)
[1]; Streptococcus viridans, isolate 5—E506, read-out: MIC
  MIC: > 64 µg/mL
[1]; Streptococcus viridans, isolate 6—E496, read-out: MIC
  MIC: 0.5 µg/mL (≈ 0.545 µM)
[1]; Streptococcus viridans, isolate 7—E456, read-out: MIC
  MIC: 16 µg/mL (≈ 17.4 µM)
[1]; Streptococcus viridans, isolate 8—E432, read-out: MIC
  MIC: 8 µg/mL (≈ 8.72 µM)
[1]; Streptococcus viridans, isolate 9—E423, read-out: MIC
  MIC: > 64 µg/mL
[1]; Streptococcus viridans, isolate 10—E418, read-out: MIC
  MIC: > 64 µg/mL
[1]; Streptococcus viridans, isolate 11—E412, read-out: MIC
  MIC: 8 µg/mL (≈ 8.72 µM)
[1]; Streptococcus viridans, isolate 12—E409, read-out: MIC
  MIC: 32 µg/mL (≈ 34.9 µM)
[1]; Streptococcus viridans, isolate 13—E405, read-out: MIC
  MIC: > 64 µg/mL
[1]; Streptococcus viridans, isolate 14—E404, read-out: MIC
  MIC: > 64 µg/mL
[1]; Streptococcus viridans, isolate 15—E396, read-out: MIC
  MIC: 32 µg/mL (≈ 34.9 µM)
[1]; Streptococcus viridans, isolate 16—E262, read-out: MIC
  MIC: 4 µg/mL (≈ 4.36 µM)
[1]; Streptococcus viridans, isolate 17—E362, read-out: MIC
  MIC: 16 µg/mL (≈ 17.4 µM)
[1]; Streptococcus viridans, isolate 18—E359, read-out: MIC
  MIC: 32 µg/mL (≈ 34.9 µM)
[1]; Streptococcus viridans, isolate 19—E348, read-out: MIC
  MIC: 16 µg/mL (≈ 17.4 µM)
[1]; Streptococcus viridans, isolate 20—E344, read-out: MIC
  MIC: 4 µg/mL (≈ 4.36 µM)
[1]; Streptococcus viridans, isolate 21—E308, read-out: MIC
  MIC: 4 µg/mL (≈ 4.36 µM)
[1]; Streptococcus viridans, isolate 22—E294, read-out: MIC
  MIC: 2 µg/mL (≈ 2.18 µM)
[1]; Streptococcus viridans, isolate 23—E292, read-out: MIC
  MIC: 0.5 µg/mL (≈ 0.545 µM)
[1]; Streptococcus viridans, isolate 24—E285, read-out: MIC
  MIC: 0.5 µg/mL (≈ 0.545 µM)
[1]; Streptococcus viridans, isolate 25—E265, read-out: MIC
  MIC: 8 µg/mL (≈ 8.72 µM)
[1]; Streptococcus viridans, n=25 per group, read-out: Median MIC
  MIC: 16 µg/mL (≈ 17.4 µM)
[1]; Streptococcus viridans, 25 isolates, Summary of Results, >64 was Replaced with 128, read-out: MIC90
  MIC90: 128 µg/mL (≈ 140 µM)
[1]; Streptococcus viridans, 25 isolates, Summary of Results, read-out: MIC50
  MIC50: 16 µg/mL (≈ 17.4 µM)
[1]; Streptococcus viridans, 25 isolates, Summary of Results, read-out: Median MIC
  MIC: 16 µg/mL (≈ 17.4 µM)
[1]; n=25 per group
  MIC50: 16 µg/mL (≈ 17.4 µM)
  MIC90: 128 µg/mL (≈ 140 µM)
  Range of MICs: 0.5 to 128 µg/mL
Haemophilus influenzae; Haemophilus influenzae, 25 ocular isolates, HTM medium, read-out: Median MIC
  MIC: 16 µg/mL (≈ 17.4 µM)
Haemophilus influenzae; Haemophilus influenzae, isolate 1 B1359, read-out: MIC
  MIC: > 64 µg/mL
Haemophilus influenzae; Haemophilus influenzae, isolate 2 B1346, read-out: MIC
  MIC: > 64 µg/mL
Haemophilus influenzae; Haemophilus influenzae, isolate 3 B1345, read-out: MIC
  MIC: > 64 µg/mL
Haemophilus influenzae; Haemophilus influenzae, isolate 4 B1343, read-out: MIC
  MIC: > 64 µg/mL
Haemophilus influenzae; Haemophilus influenzae, isolate 5 B1338, read-out: MIC
  MIC: 16 µg/mL (≈ 17.4 µM)
Haemophilus influenzae; Haemophilus influenzae, isolate 6 B1332, read-out: MIC
  MIC: 64 µg/mL (≈ 69.8 µM)
Haemophilus influenzae; Haemophilus influenzae, isolate 7 B1331, read-out: MIC
  MIC: > 64 µg/mL
Haemophilus influenzae; Haemophilus influenzae, isolate 8 B1330, read-out: MIC
  MIC: > 64 µg/mL
Haemophilus influenzae; Haemophilus influenzae, isolate 9 B1379, read-out: MIC
  MIC: 8 µg/mL (≈ 8.72 µM)
Haemophilus influenzae; Haemophilus influenzae, isolate 10 B1378, read-out: MIC
  MIC: 4 µg/mL (≈ 4.36 µM)
Haemophilus influenzae; Haemophilus influenzae, isolate 11 B1313, read-out: MIC
  MIC: 2 µg/mL (≈ 2.18 µM)
Haemophilus influenzae; Haemophilus influenzae, isolate 12 B1477, read-out: MIC
  MIC: 4 µg/mL (≈ 4.36 µM)
Haemophilus influenzae; Haemophilus influenzae, isolate 13 B1286, read-out: MIC
  MIC: 2 µg/mL (≈ 2.18 µM)
Haemophilus influenzae; Haemophilus influenzae, isolate 14 B1282, read-out: MIC
  MIC: 8 µg/mL (≈ 8.72 µM)
Haemophilus influenzae; Haemophilus influenzae, isolate 15 B1291, read-out: MIC
  MIC: 16 µg/mL (≈ 17.4 µM)
Haemophilus influenzae; Haemophilus influenzae, isolate 16 B1280, read-out: MIC
  MIC: 16 µg/mL (≈ 17.4 µM)
Haemophilus influenzae; Haemophilus influenzae, isolate 17 B1279, read-out: MIC
  MIC: 64 µg/mL (≈ 69.8 µM)
Haemophilus influenzae; Haemophilus influenzae, isolate 18 B1260, read-out: MIC
  MIC: 16 µg/mL (≈ 17.4 µM)
Haemophilus influenzae; Haemophilus influenzae, isolate 19 B1238, read-out: MIC
  MIC: 8 µg/mL (≈ 8.72 µM)
Haemophilus influenzae; Haemophilus influenzae, isolate 20 B1209, read-out: MIC
  MIC: 8 µg/mL (≈ 8.72 µM)
Haemophilus influenzae; Haemophilus influenzae, isolate 21 B1249, read-out: MIC
  MIC: 16 µg/mL (≈ 17.4 µM)
Haemophilus influenzae; Haemophilus influenzae, isolate 22 B1248, read-out: MIC
  MIC: 4 µg/mL (≈ 4.36 µM)
Haemophilus influenzae; Haemophilus influenzae, isolate 23 B1244, read-out: MIC
  MIC: 32 µg/mL (≈ 34.9 µM)
Haemophilus influenzae; Haemophilus influenzae, isolate 24 B1419, read-out: MIC
  MIC: 32 µg/mL (≈ 34.9 µM)
Haemophilus influenzae; Haemophilus influenzae, isolate 25 B1222, read-out: MIC
  MIC: > 64 µg/mL
Haemophilus influenzae; [2]
  MIC50: 16 µg/mL (≈ 17.4 µM)
  MIC90: 128 µg/mL (≈ 140 µM)
Haemophilus influenzae; Haemophilus influenzae, n=25 isolates, >64 replaced with 128, read-out: Median MIC
  MIC: 16 µg/mL (≈ 17.4 µM)
Haemophilus influenzae; n=25 isolates, >64 replaced with 128
  Range of MICs: 2 to 128 µg/mL
